Laboratory results from patent US10975119B2, “Selective cysteine protease inhibitors and uses thereof” (Genesis Technologies Limited, priority 2011, dated 2021).
pIC50: −log10 of the molar value. Entries after “also recorded” stand apart in the source; their conditions may differ. Like-named read-outs stand apart in the source and are kept apart here.

What was measured:
Format in all cases: biochemical
Caspase-1 = biological target: T1, Caspase-1 (Homo sapiens, UniProt P29466); test: Caspase-1 inhibitor screening assay (BioVision kit, YVAD-AFC); conditions: for inhibition at 10 µM: read-out: % Inhibition at 10 uM Casp1; for inhibition at 100 µM: read-out: % Inhibition at 100 uM Casp1
T1 construct: mixing the compounds with the respective active caspases; purchased BioVision K151-100
T1 sequence (P29466 120-297 limits assumed): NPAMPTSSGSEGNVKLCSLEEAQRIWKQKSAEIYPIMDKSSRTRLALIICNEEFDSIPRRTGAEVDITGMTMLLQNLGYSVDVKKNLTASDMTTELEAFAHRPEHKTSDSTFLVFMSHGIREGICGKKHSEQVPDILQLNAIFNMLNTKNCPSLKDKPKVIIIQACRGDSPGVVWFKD
T1 sequence (P29466 317-404 limits assumed): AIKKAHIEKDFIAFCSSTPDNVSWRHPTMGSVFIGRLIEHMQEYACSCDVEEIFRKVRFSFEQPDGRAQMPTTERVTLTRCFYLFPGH
Procedure, shortened: (§1)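 Fluorometric read-out of free AFC released from the caspase-specific synthetic substrate. IC50 from concentration series, sometimes narrower.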

Caspase-3 = biological target: T2, Caspase-3 (Homo sapiens, UniProt P42574); test: Caspase-3 inhibitor screening assay (BioVision kit, DEVD-AFC); conditions: for inhibition at 10 µM: read-out: % Inhibition at 10 uM Casp3; for inhibition at 100 µM: read-out: % Inhibition at 100 uM Casp3
T2 construct: mixing the compounds with the respective active caspases; purchased BioVision K153-100
T2 sequence (P42574 29-175 limits assumed): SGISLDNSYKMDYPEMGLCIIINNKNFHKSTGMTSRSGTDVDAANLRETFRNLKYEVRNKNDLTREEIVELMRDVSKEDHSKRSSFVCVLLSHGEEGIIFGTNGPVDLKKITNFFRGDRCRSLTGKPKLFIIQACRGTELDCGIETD
T2 sequence (P42574 176-277 limits assumed): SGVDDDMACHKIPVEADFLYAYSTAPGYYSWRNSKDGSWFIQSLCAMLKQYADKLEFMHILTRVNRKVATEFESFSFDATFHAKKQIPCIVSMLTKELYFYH
Procedure, shortened: as §1

Caspase-5 = biological target: T3, Caspase-5 (Homo sapiens, UniProt P51878); test: Caspase-5 inhibitor screening assay (BioVision kit, WEHD-AFC); conditions: for inhibition at 10 µM: read-out: % Inhibition at 10 uM Casp5; for inhibition at 100 µM: read-out: % Inhibition at 100 uM Casp5
T3 construct: mixing the compounds with the respective active caspases; purchased BioVision K155-100
T3 sequence (P51878 137-327 limits assumed): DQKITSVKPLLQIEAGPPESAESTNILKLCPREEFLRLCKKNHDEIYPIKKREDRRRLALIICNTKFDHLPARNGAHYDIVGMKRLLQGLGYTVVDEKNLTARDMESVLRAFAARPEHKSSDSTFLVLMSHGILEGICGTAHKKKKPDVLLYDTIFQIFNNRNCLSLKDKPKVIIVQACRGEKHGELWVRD
T3 sequence (P51878 347-434 limits assumed): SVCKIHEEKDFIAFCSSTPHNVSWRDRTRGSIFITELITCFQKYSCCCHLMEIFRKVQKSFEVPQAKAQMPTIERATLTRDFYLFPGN
Procedure, shortened: as §1

Caspase-7 = biological target: T4, Caspase-7 (Homo sapiens, UniProt P55210); test: Caspase-7 inhibitor screening assay (BioVision kit, DEVD-AFC); conditions: for inhibition at 10 µM: read-out: % Inhibition at 10 uM Casp7; for inhibition at 100 µM: read-out: % Inhibition at 100 uM Casp7
T4 construct: mixing the compounds with the respective active caspases; purchased BioVision K157-100
T4 sequence (P55210 24-198 limits assumed): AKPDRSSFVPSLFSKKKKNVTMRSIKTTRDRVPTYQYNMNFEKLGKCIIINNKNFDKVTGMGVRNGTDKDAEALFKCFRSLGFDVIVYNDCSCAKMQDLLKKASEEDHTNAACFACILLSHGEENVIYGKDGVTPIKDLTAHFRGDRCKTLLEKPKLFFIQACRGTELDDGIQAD
T4 sequence (P55210 207-303 limits assumed): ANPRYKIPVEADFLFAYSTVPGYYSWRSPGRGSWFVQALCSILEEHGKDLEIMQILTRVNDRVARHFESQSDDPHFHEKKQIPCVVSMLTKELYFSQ
Procedure, shortened: as §1

Caspases 1 through 10 = test: Caspase-1 to Caspase-10 inhibitor screening, profile across the panel
Protocol: The efficacy of an array of compounds as an inhibitor of the activity of Caspases 1 through 10 were assessed by using the respective Caspase Inhibitor Drug Screening Kits (Caspase-1 Catalog #: K151-100, Caspase-2 Catalog #: K152-100, Caspase-3 Catalog #: K153-100, Caspase-4 Catalog #: K154-100, Caspase-5 Catalog #: K155-100, Caspase-6 Catalog #: K156-100, Caspase-7 Catalog #: K157-100, Caspase-8 Catalog #: K158-100, Caspase-9 Catalog #: K159-100, Caspase-10 Catalog #: K160-100, BioVision) following the instructions of the manufacturer. […] Active caspases cleaved their respective synthetic substrates to release free AFC, which was then quantified by fluorometry.
Briefly, the compounds were first tested at 2 concentrations (10 uM and 100 uM final) to determine if there is a hit. […] Each condition was tested in duplicates. […] For some samples, a smaller range of concentrations was tested depending on the % Inhibition results at 10 uM and 100 uM. Results were summarized in Tables 2, 3, and 4 herein after. Table 2 represents the IC50 values (uM) of the test compounds as inhibitors of the activity of the various caspases.
(*) RFU (no inhibitor control)—RFU (compound at a specific concentration)
RFU (no inhibitor control)

[1] = read-out: potency (IC50) against caspase-1
[2] = read-out: potency (IC50) against caspase-5
[3] = read-out: potency (IC50) against caspase-3
[4] = read-out: potency (IC50) against caspase-7

Row | SMILES | inhibition at 10 µM (Caspase-1) [%] | inhibition at 100 µM (Caspase-1) [%] | pIC50 (Caspase-1; read-out: IC50 Casp1) | pIC50 (Caspase-1; [1]) | inhibition at 10 µM (Caspase-3) [%] | inhibition at 100 µM (Caspase-3) [%] | pIC50 (Caspase-3; read-out: IC50 Casp3) | inhibition at 10 µM (Caspase-5) [%] | inhibition at 100 µM (Caspase-5) [%] | pIC50 (Caspase-5; read-out: IC50 Casp5) | pIC50 (Caspase-5; [2]) | inhibition at 10 µM (Caspase-7) [%] | inhibition at 100 µM (Caspase-7) [%] | pIC50 (Caspase-7; read-out: IC50 Casp7) | pIC50 (Caspase-3; [3]) | pIC50 (Caspase-7; [4]) | inhibition profile across caspases, in words (Caspases 1 through 10)
1 | CC(C)(C)[C@H](NC(=O)c1ccc(N)c(Cl)c1)C(=O)N1CCCC1C(=O)N[C@H](/C=C/S(C)(=O)=O)CC(=O)O (stereo in doubt) [Compound 14, 4-amino-3-chlorobenzene carbonyl-t-Leu-Pro-Asp methyl vinyl sulfone] | 99 | 100 | 7.70 | 7.72 | 7 | 18 | < 4.00 | 96 | 100 | 6.25 | 6.25 | 13 | 91 | 4.61 | – | – | very strong inhibitory activity towards pro-inflammatory Caspases
2 | CC(C)(C)[C@H](NC(=O)c1ccc2ccccc2n1)C(=O)N1CCC[C@@H]1C(=O)N[C@H](/C=C/S(C)(=O)=O)CC(=O)O [Compound 6, 2-Quinoline carbonyl-t-Leu-pro-Asp methyl vinyl sulfone] | 98 | 100 | 7.40 | 7.38 | 1 | 1 | < 4.00 | 86 | 99 | – | 5.63 | 0 | 2 | < 4.00 | – | – | inhibits selectively caspase-1; also recorded: very strong inhibitory activity towards pro-inflammatory Caspases
3 | CCOC(=O)/C=C/[C@H](CC(=O)O)NC(=O)[C@H]1CCCN1C(=O)[C@@H](NC(=O)c1ccc2ccccc2n1)C(C)(C)C [Compound 118, 2-Quinoline carbonyl-t-Leu-Pro-Asp Ethyl Vinyl Ester] | 100 | 100 | 7.52 | – | 0 | 15 | < 4.00 | 88 | 99 | 5.71 | – | 3 | 8 | < 4.00 | – | – | very strong inhibitory activity towards pro-inflammatory Caspases
4 | CC(C)(C)[C@H](NC(=O)c1ccc2ccccc2n1)C(=O)N1CC[C@@H]1C(=O)N[C@H](/C=C/S(C)(=O)=O)CC(=O)O [Compound 20, 2-Quinoline carbonyl-t-Leu-(Azetidine-2-carbonyl)-Asp methyl vinyl sulfone] | 81 | 99 | 5.85 | – | 1 | 5 | < 4.00 | 55 | 96 | 5.08 | – | 0 | 0 | < 4.00 | – | – | –
5 | CS(=O)(=O)/C=C/[C@H](CC(=O)O)NC(=O)[C@H]1CCC(=O)N1 [Compound 24, (2-Pyrrolidinone-5-carbonyl)-Asp methyl vinyl sulfone] | 3 | 10 | < 4.00 | – | 0 | 0 | < 4.00 | 0 | 0 | < 4.00 | – | 1 | 0 | < 4.00 | – | – | –

Now those with a higher pIC50 (Caspase-3; read-out: IC50 Casp3), led by results:

Row | inhibition at 10 µM (Caspase-1) [%] | inhibition at 100 µM (Caspase-1) [%] | pIC50 (Caspase-1; read-out: IC50 Casp1) | pIC50 (Caspase-1; [1]) | inhibition at 10 µM (Caspase-3) [%] | inhibition at 100 µM (Caspase-3) [%] | pIC50 (Caspase-3; read-out: IC50 Casp3) | inhibition at 10 µM (Caspase-5) [%] | inhibition at 100 µM (Caspase-5) [%] | pIC50 (Caspase-5; read-out: IC50 Casp5) | pIC50 (Caspase-5; [2]) | inhibition at 10 µM (Caspase-7) [%] | inhibition at 100 µM (Caspase-7) [%] | pIC50 (Caspase-7; read-out: IC50 Casp7) | pIC50 (Caspase-3; [3]) | pIC50 (Caspase-7; [4]) | SMILES | inhibition profile across caspases, in words (Caspases 1 through 10)
6 | – | – | 8.00 | – | – | – | 4.48 | – | – | 6.89 | – | – | – | 5.44 | – | – | CCOC(=O)/C=C/[C@H](CC(=O)O)NC(=O)[C@H]1CCCN1C(=O)[C@@H](NC(=O)c1ccc(N)c(Cl)c1)C(C)(C)C [Compound 116, (4-amino-3-chlorobenzene carbonyl)-t-Leu-Pro-Asp Ethyl vinyl ester] | stronger inhibitory activity towards pro-inflammatory caspases Caspase-1 and -5
7 | – | – | 6.11 | – | – | – | 6.24 | – | – | 5.42 | – | – | – | < 4.00 | – | – | CCOC(=O)/C=C/[C@H](CC(=O)O)NC(=O)[C@@H](NC(=O)[C@H](CCC(=O)O)NC(=O)[C@@H](NC(=O)OCc1ccccc1)C(C)C)C(C)CC (stereo partly drawn) [Compound 124, Z-Val-Glu-Ile-Asp-Ethyl Vinyl ester] | pan-caspase inhibitor
8 | 69 | 99 | 5.37 | – | 98 | 100 | 6.92 | 50 | 91 | 5.01 | – | 99 | 100 | 6.42 | 6.91 | 6.42 | CC(C)(C)[C@H](NC(=O)[C@H](CC(=O)O)NC(=O)OCc1ccccc1)C(=O)N1CCCC1C(=O)N[C@H](/C=C/S(C)(=O)=O)CC(=O)O (stereo in doubt) [Compound 26, Z-Asp-t-Leu-Pro-Asp-methyl vinyl sulfone] | high inhibitory activity towards the effector (executioner) Caspases: Caspase-3 and -7
9 | 84 | 96 | – | 5.98 | 99 | 100 | 7.52 | 41 | 41 | – | – | 99 | 99 | 6.82 | 7.57 | 6.84 | CCOC(=O)/C=C/[C@H](CC(=O)O)NC(=O)[C@@H](NC(=O)[C@@H](NC(=O)[C@H](CC(=O)O)NC(=O)OCc1ccccc1)c1ccccc1)C(C)C [Compound 105, Z-Asp-Phg-Val-Asp Ethyl Vinyl Ester] | high inhibitory activity towards the effector (executioner) Caspases: Caspase-3 and -7
